# From patent US7629377B2, “Substituted naphthyl indole derivatives as inhibitors of plasminogen activator inhibitor type-1 (PAI-1)” (Wyeth, priority 2008, dated 2009)
# Columns and labels:
# human PAI-1 = human PAI-1 (Homo sapiens, UniProt P05121); test: Assay for Determining IC50 of Inhibition of PAI-1 (Antibody Assay); type: biochemical; details: for IC50: Antibody Assay (footnote a), active PAI-1 bound to tPA-coated plate, pH 7.5; for inhibition at 25 µM: 25 μM test compound, footnote a (Antibody Assay)
# Chain of human PAI-1 (P05121 24-402): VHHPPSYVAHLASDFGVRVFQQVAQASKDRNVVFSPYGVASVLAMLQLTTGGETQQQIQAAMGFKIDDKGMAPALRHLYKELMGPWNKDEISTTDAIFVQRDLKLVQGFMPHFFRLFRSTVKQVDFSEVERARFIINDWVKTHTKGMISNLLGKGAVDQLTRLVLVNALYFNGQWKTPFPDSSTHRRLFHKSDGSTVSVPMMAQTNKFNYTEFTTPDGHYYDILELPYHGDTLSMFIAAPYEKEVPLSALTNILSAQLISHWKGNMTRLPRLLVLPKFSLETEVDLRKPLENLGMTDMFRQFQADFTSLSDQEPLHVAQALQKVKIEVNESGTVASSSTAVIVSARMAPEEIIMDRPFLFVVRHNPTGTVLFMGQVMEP
# Description: Assay for Determining IC50 of Inhibition of PAI-1
# This assay is based upon the non-SDS dissociable interaction between tPA and active PAI-1. Assay plates are initially coated with human tPA (10 μg/ml). Test compounds are dissolved in DMSO at 10 mM, then diluted with physiologic buffer (pH 7.5) to a final concentration of 1-50 μM. Test compounds are incubated with human PAI-1 (50 ng/ml) for 15 minutes at room temperature. The tPA-coated plate is washed with a solution of 0.05% Tween 20 and 0.1% BSA, then the plate is blocked with a solution of 3% BSA. An aliquot of the test compound/PAI-1 solution is then added to the tPA-coated plate, incubated at room temperature for 1 hour, and washed. Active PAI-1 bound to the plate is assessed by adding an aliquot of a 1:1000 dilution of the 33B8 monoclonal antibody against human PAI-1, and incubating the plate at room temperature for 1 hour (Molecular Innovations, Royal Oak, Mich. The plate is again washed, and a solution of goat anti-mouse IgG-alkaline phosphatase conjugate is added at a 1:50,000 dilution in goat serum. The plate is incubated 30 minutes at room temperature, washed, and a solution of alkaline phosphatase substrate is added. The plate is incubated 45 minutes at room temperature, and color development is determined at OD405 nm. The quantitation of active PAI-1 bound to tPA at varying concentrations of test compound is used to determine the IC50. Results are analyzed using a logarithmic best-fit equation. The assay sensitivity is 5 ng/ml of human PAI-1 as determined from a standard curve ranging from 0-100 ng/ml.
# [1] = molecular target: T1, recombinant human plasminogen activator inhibitor-1 (PAI-1) (Homo sapiens, UniProt P05121); test: modification of the Primary Screen for PAI-1 Inhibition; type: biochemical; details: modification of the Primary Screen (footnote b); residual tPA activity, Spectrozyme-tPA
# T1 construct: purchased Molecular Innovations, Royal Oak, Mich
# T1 sequence (P05121 24-402): as above
# Description: Primary Screen for the PAI-1 Inhibition
# Test compounds are dissolved in DMSO at a final concentration of 10 mM, then diluted […] in physiologic buffer. The inhibitory assay is initiated by the addition of test compound (1-100 μM final concentration, maximum DMSO concentration of 0.2%) in a pH 6.6 buffer containing 140 nM recombinant human plasminogen activator inhibitor-1 (PAI-1; Molecular Innovations, Royal Oak, Mich. Following a 1 hour incubation at room temperature, 70 nM of recombinant human tissue plasminogen activator (tPA) is added, and the combination of test compound, PAI-1 and tPA is incubated for an additional 30 minutes. Following the second incubation, Spectrozyme-tPA (American Diagnostica, Greenwich, Conn.), a chromogenic substrate for tPA, is added and absorbance read at 405 nm at 0 and 60 minutes. Relative PAI-1 inhibition is equal to the residual tPA activity in the presence of test compound and PAI-1. Control treatments include the complete inhibition of tPA by PAI-1 at the molar ratio employed (2:1), and the absence of any effect of the test compound on tPA alone.
SMILES,melting point,IC50 (human PAI-1) [µM],inhibition at 25 µM (human PAI-1) [%],IC50 [1] [µM]
"CCCCCc1c(-c2ccc3cc(OCc4nnn[nH]4)ccc3c2)n(Cc2ccccc2C(F)(F)F)c2ccccc12 [Example 7, 3-Pentyl-2-[6-(1H-tetraazol-5-ylmethoxy)-2-naphthyl]-1-[2-(trifluoromethyl)benzyl]-1H-indole]",> 100 °C (dec.),5.22,–,–
"CCCCCc1c(-c2ccc3c(Br)c(OCc4nnn[nH]4)ccc3c2)n(Cc2ccc(C(C)(C)C)cc2)c2ccccc12 [Example 10, 2-[5-Bromo-6-(1H-tetraazol-5-ylmethoxy)-2-naphthyl]-1-(4-tert-butylbenzyl)-3-pentyl-1H-indole]",> 90 °C (dec.),–,60,–
"CCCCCc1c(-c2ccc3c(Br)c(OCC(=O)O)ccc3c2)n(C)c2ccccc12 [Example 11, {[1-Bromo-6-(1-methyl-3-pentyl-1H-indol-2-yl)-2-naphthyl]oxy}acetic acid]",> 73 °C (dec.),10.7,–,–
"CCCCCc1c(-c2ccc3c(Br)c(OCc4nnn[nH]4)ccc3c2)n(C(C)=O)c2ccccc12 [Example 6, 1-Acetyl-2-[5-bromo-6-(1H-tetraazol-5-ylmethoxy)-2-naphthyl]-3-pentyl-1H-indole]",> 79 °C (dec.),–,16,–
"CCCCCc1c(-c2ccc3cc(OCc4nnn[nH]4)ccc3c2)n(C(C)=O)c2ccccc12 [Example 5, 1-Acetyl-3-pentyl-2-[6-(1H-tetraazol-5-ylmethoxy)-2-naphthyl]-1H-indole]",> 95 °C (dec.),–,–,9.2
"CCCCCc1c(-c2ccc3cc(OCc4nnn[nH]4)ccc3c2)n(Cc2ccc(C(C)(C)C)cc2)c2ccccc12 [Example 9, 1-(4-tert-Butylbenzyl)-3-pentyl-2-[6-(1H-tetraazol-5-ylmethoxy)-2-naphthyl]-1H-indole]",> 95 °C (dec.),24.9,–,–
"CCCCCc1c(-c2ccc3c(Br)c(OCc4nnn[nH]4)ccc3c2)n(C)c2ccccc12 [Example 4, 2-[5-Bromo-6-(1H-tetraazol-5-ylmethoxy)-2-naphthyl]-1-methyl-3-pentyl-1H-indole]",> 125 °C (dec.),–,–,17.4
"CCCCCc1c(-c2ccc3cc(OCc4nnn[nH]4)ccc3c2)n(Cc2ccccc2)c2ccccc12 [Example 1, 1-Benzyl-3-pentyl-2-[6-(1H-tetraazol-5-ylmethoxy)-2-naphthyl]-1H-indole]",–,9.85,–,–
"CCCCCc1c(-c2ccc3c(Br)c(OCc4nnn[nH]4)ccc3c2)n(Cc2ccccc2)c2ccccc12 [Example 2, 1-Benzyl-2-[5-bromo-6-(1H-tetraazol-5-ylmethoxy)-2-naphthyl]-3-pentyl-1H-indole]",> 70 °C (dec.),–,–,8.8
"CCCCCc1c(-c2ccc3c(Br)c(OCc4nnn[nH]4)ccc3c2)n(Cc2ccccc2C(F)(F)F)c2ccccc12 [Example 8, 2-[5-Bromo-6-(1H-tetraazol-5-ylmethoxy)-2-naphthyl]-3-pentyl-1-[2-(trifluoromethyl)benzyl]-1H-indole]",> 85 °C (dec.),–,57,–
"CCCCCc1c(-c2ccc3cc(OCc4nnn[nH]4)ccc3c2)n(C)c2ccccc12 [Example 3, 1-Methyl-3-pentyl-2-[6-(1H-tetraazol-5-ylmethoxy)-2-naphthyl]-1H-indole]",120 to 122 °C,16.2,–,–
